Laboratory results taken from patent publication US6897209B2, “Labelled factor XIIIa substrates” (GE Healthcare Limited, priority 1997, dated 2005).

Legend:
[1] = system: clots induced in rat inferior vena cava; experiment: Incorporation into clots induced in a rat model (rat inferior vena cava model); type: in vivo; conditions: rat IVC model; for Clot/Blood / Clot/Heart / Clot/Liver / Clot/Lung: 60 min; for % ID/g (clot uptake) / Relative conc (cpm/g of clot by dose/g animal): compound injected 5 min post-induction, clot removed after 60 min
Procedure: The rats (Male Wistar, 250-350 g) were anaesthetised with 15% urethane. After laparotomy, the vena cava was isolated and freed of surrounding fat tissue. […] The average weight of the clots formed in this model was around 27 mg, n=32, (5-50 mg range). The so compounds were injected 5 min post-induction. After 60 min the animals were sacrificed and the clot removed, weighed and counted. Other tissues e.g. blood, lung, heart, were also dissected and counted. The uptake of tracer into the clot was determined as the relative concentration (cpm/g of clot by dose/g animal ) and clot to background tissue.

[2] = Normal rat biodistribution; type: in vivo; conditions: i.v., male Wistar rats, Mean±SD n=3
Procedure: The resolution of a clot image is dependant on the combination of rate of incorporation of the radiopharmaceutical and its blood/tissues clearance rate. For this reason the biodistribution of several compounds has been determined in rats. Male Wistar (100-150 g) rats were injected i.v. with 0.1-0.2 ml of radiolabelled tracer solution (8 MBq/ml) and dissected at different times post-injection. The % ID in each of the selected tissues was measured. Some animals were kept in metabolism cages to be able to determine the % ID excreted in urine and faeces. The dissection times used for the majority of the agents was 2, 15, 30, 60, 240 min. Data are shown as % ID, Mean±SD, (n=3).

Factor XIIIa = target: T1, Factor XIIIa (Homo sapiens, UniProt P00488); experiment: Factor XIIIa dependency of incorporation (dimethylcasein uptake, normal vs Factor XIII deficient plasma); type: biochemical; conditions: 1 KBq/ml, 60 minutes; uptake in normal plasma minus Factor XIII deficient plasma
T1 construct: Factor XIII is transformed into its active form Factor XIIIa by thrombin in the presence of calcium ions; from tissue; host or cells: human plasma
T1 sequence (P00488 39-732 limits assumed): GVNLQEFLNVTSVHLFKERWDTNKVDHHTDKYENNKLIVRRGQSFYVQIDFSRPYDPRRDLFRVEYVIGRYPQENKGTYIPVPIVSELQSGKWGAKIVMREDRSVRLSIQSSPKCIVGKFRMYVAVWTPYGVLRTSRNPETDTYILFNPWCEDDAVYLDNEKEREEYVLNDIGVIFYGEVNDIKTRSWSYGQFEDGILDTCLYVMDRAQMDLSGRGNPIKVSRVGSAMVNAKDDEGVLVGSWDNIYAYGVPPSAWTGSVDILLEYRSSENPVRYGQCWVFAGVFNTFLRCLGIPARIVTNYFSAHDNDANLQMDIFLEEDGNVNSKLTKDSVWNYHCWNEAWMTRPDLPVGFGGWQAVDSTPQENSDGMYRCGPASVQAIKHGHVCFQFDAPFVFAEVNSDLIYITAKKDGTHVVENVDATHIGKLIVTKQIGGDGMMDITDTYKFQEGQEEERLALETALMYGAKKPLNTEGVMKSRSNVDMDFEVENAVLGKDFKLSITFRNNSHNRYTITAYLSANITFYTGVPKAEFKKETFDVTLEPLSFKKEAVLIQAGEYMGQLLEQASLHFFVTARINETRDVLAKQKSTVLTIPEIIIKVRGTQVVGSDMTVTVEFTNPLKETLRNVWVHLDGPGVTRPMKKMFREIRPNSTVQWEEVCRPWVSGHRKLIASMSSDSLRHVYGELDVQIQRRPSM
Procedure: The assay was changed by replacing the mercaptoethanol with aprotinin at a final concentration of 2 μg/ml, and dimethylcasein (DMC) was used instead of casein.

human plasma clots [3] = target: T2, human plasma clots (Homo sapiens, UniProt P00488); experiment: Incorporation into human plasma clots (in vitro plasma clot assay); type: biochemical; conditions: for % specific uptake*: % retained with thrombin − % retained no thrombin; for % retained in plasma clot assay (with thrombin): human plasma with thrombin and calcium chloride, 60 minutes, ca. 20° C.
T2 construct: Factor XIII is transformed into its active form Factor XIIIa by thrombin in the presence of calcium ions; from tissue; host or cells: human plasma, clotted in vitro with thrombin and calcium chloride
T2 sequence (P00488 39-732): T1 sequence (P00488 39-732 limits assumed)
Procedure: (§1) Incorporation of radiolabelled substrates into fibrin was investigated by induction of an in vitro human plasma clot in the following manner. To a siliconised 5 ml glass vial was added, (a) 800 μl of Tris(hydroxymethyl)aminomethane buffered saline pH 7.5 containing calcium chloride (50 mM Tris, 150 mM sodium chloride, 4 mM calcium chloride.), (b) 40 μl of physiological salt solution containing 100 units of thrombin per ml, (c) 400 μl of human plasma containing the radiolabelled substrate at a concentration of typically 10 kBq/ml. To aid induction of clot a roughened glass rod was added to the reaction vial. Control vials were prepared similarly but with the omission of thrombin and calcium chloride.
(§2) The proportion of total radioactivity was calculated by counting in suitable detection apparatus.
(§3) The fraction of radioactivity retained on the filter, after subtraction of the non-specific binding determined from the control, is a measure of incorporation into the filtered clots.

human plasma clots [4] = experiment: as above; type: biochemical; conditions: control vials without thrombin and calcium chloride, 60 minutes
Procedure: as §1, §2, §3

SMILES: CC(=NO)C(C)(C)NCCN(CCNC(=O)C1CCC(CNC(=O)c2ccc(S(=O)(=O)NCCCCCN)cc2)CC1)CCNC(C)(C)C(C)=NO (stereo not drawn) [Compound 17]
- Clot/Blood [1]: 1.15
- Clot/Heart [1]: 2.7
- Clot/Liver [1]: 1.26
- Clot/Lung [1]: 1.54
- % ID/g (clot uptake) [1]: 0.32 ± 0.04 % ID/g
- Relative conc (cpm/g of clot by dose/g animal) [1]: 1.1 ± 0.17
- % ID Blood ([2]; 2 min post-injection): 18.5 ± 1.06 % ID
- % ID GI Tract ([2]; 2 min post-injection): 6.31 ± 0.6 % ID
- % ID Heart ([2]; 2 min post-injection): 0.34 + 0.17 % ID
- % ID Kidney ([2]; 2 min post-injection): 12.3 ± 0.53 % ID
- % ID Liver ([2]; 2 min post-injection): 4.3 ± 0.06 % ID
- % ID Lung ([2]; 2 min post-injection): 1.69 ± 0.1 % ID
- % ID Muscle ([2]; 2 min post-injection): 25.9 ± 1.8 % ID
- % ID Spleen ([2]; 2 min post-injection): 0.33 ± 0.07 % ID
- % ID Urine ([2]; 2 min post-injection): 1.38 ± 1.34 % ID
- % ID Blood ([2]; 15 min post-injection): 9.46 ± 0.24 % ID
- % ID GI Tract ([2]; 15 min post-injection): 9.6 ± 0.9 % ID
- % ID Heart ([2]; 15 min post-injection): 0.27 + 0.06 % ID
- % ID Kidney ([2]; 15 min post-injection): 7.32 ± 0.76 % ID
- % ID Liver ([2]; 15 min post-injection): 4.25 ± 0.85 % ID
- % ID Lung ([2]; 15 min post-injection): 0.9 ± 0.16 % ID
- % ID Muscle ([2]; 15 min post-injection): 15.6 ± 1.05 % ID
- % ID Spleen ([2]; 15 min post-injection): 0.17 ± 0.04 % ID
- % ID Urine ([2]; 15 min post-injection): 30.1 ± 1.28 % ID
- % ID Blood ([2]; 30 min post-injection): 5.7 ± 0.42 % ID
- % ID GI Tract ([2]; 30 min post-injection): 13.07 ± 1.4 % ID
- % ID Heart ([2]; 30 min post-injection): 0.17 + 0.04 % ID
- % ID Kidney ([2]; 30 min post-injection): 7.1 ± 1.89 % ID
- % ID Liver ([2]; 30 min post-injection): 2.94 ± 0.22 % ID
- % ID Lung ([2]; 30 min post-injection): 0.54 ± 0.07 % ID
- % ID Muscle ([2]; 30 min post-injection): 8.51 ± 0.93 % ID
- % ID Spleen ([2]; 30 min post-injection): 0.11 ± 0.03 % ID
- % ID Urine ([2]; 30 min post-injection): 46.9 ± 3.71 % ID
- % ID Blood ([2]; 60 min post-injection): 2.23 ± 0.15 % ID
- % ID GI Tract ([2]; 60 min post-injection): 17.7 ± 3.8 % ID
- % ID Heart ([2]; 60 min post-injection): 0.07 + 0.02 % ID
- % ID Kidney ([2]; 60 min post-injection): 3.77 ± 0.73 % ID
- % ID Liver ([2]; 60 min post-injection): 1.79 ± 0.45 % ID
- % ID Lung ([2]; 60 min post-injection): 0.28 ± 0.02 % ID
- % ID Muscle ([2]; 60 min post-injection): 4.31 ± 0.95 % ID
- % ID Spleen ([2]; 60 min post-injection): 0.07 ± 0.02 % ID
- % ID Urine ([2]; 60 min post-injection): 65.8 ± 3.4 % ID
- % ID Blood ([2]; 240 min post-injection): 0.09 ± 0.02 % ID
- % ID GI Tract ([2]; 240 min post-injection): 25.4 ± 5.2 % ID
- % ID Heart ([2]; 240 min post-injection): 0.01 % ID
- % ID Kidney ([2]; 240 min post-injection): 5.1 ± 0.99 % ID
- % ID Liver ([2]; 240 min post-injection): 1 + 0.17 % ID
- % ID Lung ([2]; 240 min post-injection): 0.1 ± 0.01 % ID
- % ID Muscle ([2]; 240 min post-injection): 0.81 ± 0.26 % ID
- % ID Spleen ([2]; 240 min post-injection): 0.03 ± 0.02 % ID
- % ID Urine ([2]; 240 min post-injection): 66.08 ± 4.98 % ID
- % specific DMC casein uptake (Factor XIIIa): 22.5%
- % specific uptake* (human plasma clots [3]): 14.7%
- % retained in plasma clot assay (with thrombin) (human plasma clots [3]): 17%
- % retained in plasma clot assay (no thrombin) (human plasma clots [4]): 2.3%

SMILES: NCCCCCNS(=O)(=O)c1ccc(C(=O)NCCCNC(=O)c2ccc(NN)nc2)cc1 [Compound 24, N-[6-hydrazinopyridine-3-carbonyl]-N′-(4-N-(5-aminopentyl)amidosulphonyl)benzoyl propane-1,3-diamine]
- Clot/Blood [1]: 1.8
- Clot/Heart [1]: 3.9
- Clot/Liver [1]: 0.93
- Clot/Lung [1]: 2.5
- % ID/g (clot uptake) [1]: 0.21 ± 0.02 % ID/g
- Relative conc (cpm/g of clot by dose/g animal) [1]: 0.62 ± 0.1
- % ID Blood ([2]; 2 min post-injection): 18.2 ± 1.39 % ID
- % ID GI Tract ([2]; 2 min post-injection): 7.48 ± 0.45 % ID
- % ID Heart ([2]; 2 min post-injection): 0.73 + 0.1 % ID
- % ID Kidney ([2]; 2 min post-injection): 10.2 ± 3.07 % ID
- % ID Liver ([2]; 2 min post-injection): 5.38 ± 0.75 % ID
- % ID Lung ([2]; 2 min post-injection): 1.99 ± 0.12 % ID
- % ID Muscle ([2]; 2 min post-injection): 28.5 ± 0.25 % ID
- % ID Urine ([2]; 2 min post-injection): 0.11 ± 0.1 % ID
- % ID Blood ([2]; 15 min post-injection): 7.11 ± 1.29 % ID
- % ID GI Tract ([2]; 15 min post-injection): 23.3 ± 6.5 % ID
- % ID Heart ([2]; 15 min post-injection): 0.3 + 0.08 % ID
- % ID Kidney ([2]; 15 min post-injection): 4.11 ± 1.31 % ID
- % ID Liver ([2]; 15 min post-injection): 6.7 ± 1.21 % ID
- % ID Lung ([2]; 15 min post-injection): 0.78 ± 0.16 % ID
- % ID Muscle ([2]; 15 min post-injection): 17.9 ± 4.38 % ID
- % ID Urine ([2]; 15 min post-injection): 8.64 ± 5.6 % ID
- % ID Blood ([2]; 30 min post-injection): 3.86 ± 0.62 % ID
- % ID GI Tract ([2]; 30 min post-injection): 31.5 ± 11.9 % ID
- % ID Heart ([2]; 30 min post-injection): 0.13 + 0.03 % ID
- % ID Kidney ([2]; 30 min post-injection): 2.52 ± 1.1 % ID
- % ID Liver ([2]; 30 min post-injection): 3.67 ± 0.62 % ID
- % ID Lung ([2]; 30 min post-injection): 0.39 ± 0.06 % ID
- % ID Muscle ([2]; 30 min post-injection): 10.2 ± 1.09 % ID
- % ID Urine ([2]; 30 min post-injection): 31.0 ± 9.41 % ID
- % ID Blood ([2]; 60 min post-injection): 1.6 ± 0.57 % ID
- % ID GI Tract ([2]; 60 min post-injection): 38.8 ± 9.6 % ID
- % ID Heart ([2]; 60 min post-injection): 0.06 + 0.03 % ID
- % ID Kidney ([2]; 60 min post-injection): 1.4 ± 0.38 % ID
- % ID Liver ([2]; 60 min post-injection): 1.6 ± 0.29 % ID
- % ID Lung ([2]; 60 min post-injection): 0.18 ± 0.06 % ID
- % ID Muscle ([2]; 60 min post-injection): 3.62 ± 0.9 % ID
- % ID Urine ([2]; 60 min post-injection): 44.9 ± 7.32 % ID
- % ID Blood ([2]; 240 min post-injection): 0.29 ± 0.06 % ID
- % ID GI Tract ([2]; 240 min post-injection): 46.3 ± 4.4 % ID
- % ID Heart ([2]; 240 min post-injection): 0.02 + 0.01 % ID
- % ID Kidney ([2]; 240 min post-injection): 0.92 ± 0.37 % ID
- % ID Liver ([2]; 240 min post-injection): 0.3 ± 0.03 % ID
- % ID Lung ([2]; 240 min post-injection): 0.05 ± 0.02 % ID
- % ID Muscle ([2]; 240 min post-injection): 1.1 ± 0.32 % ID
- % ID Urine ([2]; 240 min post-injection): 49.51 ± 4.62 % ID
- % specific DMC casein uptake (Factor XIIIa): 22.5%
- % specific uptake* (human plasma clots [3]): 13.8%
- % retained in plasma clot assay (with thrombin) (human plasma clots [3]): 14%
- % retained in plasma clot assay (no thrombin) (human plasma clots [4]): 0.2%
